From article PMC12584752, “Covalent fragment screening to inhibit the E3 ligase activity of bacterial NEL enzymes SspH1 and SspH2” (RSC Chemical Biology, 2025)
pKi: −log10 of the molar value.

Assays:
SspH1 (aa 161–700) = target: T1, SspH1 (aa 161–700) (Salmonella typhimurium, UniProt D0ZVG2); experiment: Full kinetics characterisation of covalent labelling by intact LC-MS; assay type: binding; settings: for ligand efficiencies reflecting the reversible binding interactions: SspH1 and 2, from lower bounds on KI
T1 construct: Recombinant IpaH9.8 (21–545) and SspH1 (161–700) were incubated at 0.5 μM; His-tag (N, cleaved yes); made in house; host or cells: E. coli BL21
T1 sequence (D0ZVG2 161-700): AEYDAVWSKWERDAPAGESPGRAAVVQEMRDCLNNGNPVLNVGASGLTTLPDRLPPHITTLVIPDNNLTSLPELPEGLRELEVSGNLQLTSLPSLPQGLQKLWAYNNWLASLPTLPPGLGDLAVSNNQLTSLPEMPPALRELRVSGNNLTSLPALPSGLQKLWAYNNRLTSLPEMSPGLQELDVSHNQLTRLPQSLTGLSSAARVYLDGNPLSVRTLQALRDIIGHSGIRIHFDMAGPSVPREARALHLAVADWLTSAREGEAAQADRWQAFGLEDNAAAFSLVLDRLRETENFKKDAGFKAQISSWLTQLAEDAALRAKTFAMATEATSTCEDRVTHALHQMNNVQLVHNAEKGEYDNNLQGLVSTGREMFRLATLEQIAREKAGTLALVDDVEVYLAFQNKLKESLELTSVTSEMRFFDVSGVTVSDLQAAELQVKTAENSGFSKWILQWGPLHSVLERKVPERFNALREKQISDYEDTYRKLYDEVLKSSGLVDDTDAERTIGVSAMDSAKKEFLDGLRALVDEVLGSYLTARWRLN
Protocol: (§1) Fig. 3 Validation of HTC hit compounds by intact MS. Labelling heatmaps of dilution series (100–6.25 μM) of compounds 4–10 with (A) WT SspH1 and (B) C492K SspH1. Labelling heatmaps of dilution series of (C) compound 6 and (D) compound 7 with bacterial and human ubiquitin binding proteins. Recombinant proteins were incubated at either 1.0 or 0.5 μM with 50 μM fragments for 24 hours at 4 °C, before fragment labelling was analysed by intact LC-MS. Bacterial proteins are shown in bold and human proteins in italic fonts. (E)–(H) Kinetics analyses: time courses (0–12 hours) of compound labelling (100–1.56 μM) of SspH1 and SspH2 (0.5 μM) for (E) SspH1 and compound 7, and (F) SspH2 and compound 6. Measurements were performed in technical triplicates. Labelling percentages were plotted against time in GraphPad Prism v.10, and curves fitted separately for each replicate using one-phase association, with constraints Y0 = 0 and plateau = highest labelling percentage. Graphs for SspH1 and compound 6, and SspH2 and compound 7 are shown in Fig. S4A and B. Rate constants (kobs, as given by Graphpad Prism calculated K values) were plotted against fragment concentration in triplicate for (G) SspH1 and (H) SspH2. Straight lines were fitted with constraint Yintercept = 0. For SspH2 kinetics, 100 μM kobs was outside the linear range.
(§2) To further understand and compare the labelling of SspH1 and SspH2, we performed a full kinetic analysis of compounds 6 and 7 with both proteins (Fig. 3E–H and Fig. S4A, B). […] Up to a maximum test concentration of 100 μM, the kobsvs. concentration plot was linear for SspH1 so it was not possible to derive individual values of kinact and KI. For SspH2, the relationship was also linear up to 50 μM so it was still only possible to reliably calculate kinact/KI. Nonetheless, we can infer from these plots KI values (SspH1) >100 μM and KI values […] for compounds 6 and 7. From these lower bounds on KI it is clear that the range of ligand efficiencies reflecting the reversible binding interactions with SspH1 and 2 are low (0.19–0.21) and may hint at a challenging binding site for optimising a small molecule inhibitor. Identification of alternative hit series and/or X-ray crystallography would be expected to yield further insight into this putative small molecule binding site. […] At present we don’t understand the molecular basis for the increased reactivity of SspH2 over SspH1, and can only speculate that subtle differences in the active site environment render the catalytic cysteine more reactive.
(§3) Recombinant SspH1 (aa 161–700) and SspH2 (aa 166–783) were both characterised against compounds 6 and 7. A dilution series in DMSO was prepared for the compound, and 1 μL added to three separate wells in a 384 well plate, representing technical triplicates of each condition. 99 μL of 0.5 μM SspH1 or SspH2 in 25 mM HEPES pH 7.5, 50 mM NaCl buffer was added to the wells and mixed thoroughly (final compound concentrations 100, 50, 25, 12.5, 6.25, 3.125, 1.56 μM). This mixture was then dispensed into 8 wells of 10 μL each in a new 384 well plate, one for each time point. The plate was incubated at 4 °C during intact MS. Intact protein LC-MS was performed as previously described,[40] at approximate time points 0, 1, 2, 4, 6, 8 and 12 hours, and deconvoluted as above. The exact times of each measurement were saved with each reading and used for kinetics calculations. Labelling percentages were plotted against time in GraphPad Prism v.10, and curves fitted separately for each replicate using one-phase association, with constraints Y0 = 0 and plateau = highest labelling percentage. Rate constants (kobs, as given by Graphpad Prism calculated K values) were then plotted against concentration in triplicate, and straight lines fitted with constraint Yintercept = 0. Data are presented as mean ± SD, n = 3. Slope values were converted from μM^−1 hour^−1 to M^−1 s^−1 to give kinact/KI values. […]

SspH2 (aa 166–783) = target: T2, SspH2 (aa 166–783) (Salmonella typhimurium, UniProt D0ZPH9); experiment: as above; assay type: binding; settings: for fold higher kinact/KI with SspH2 than SspH1: SspH2 versus SspH1
T2 construct: Recombinant SspH1 (aa 161–700) and SspH2 (aa 166–783) were both characterised; His-tag (N, cleaved yes); made in house; host or cells: E. coli BL21
T2 sequence (D0ZPH9 166-783): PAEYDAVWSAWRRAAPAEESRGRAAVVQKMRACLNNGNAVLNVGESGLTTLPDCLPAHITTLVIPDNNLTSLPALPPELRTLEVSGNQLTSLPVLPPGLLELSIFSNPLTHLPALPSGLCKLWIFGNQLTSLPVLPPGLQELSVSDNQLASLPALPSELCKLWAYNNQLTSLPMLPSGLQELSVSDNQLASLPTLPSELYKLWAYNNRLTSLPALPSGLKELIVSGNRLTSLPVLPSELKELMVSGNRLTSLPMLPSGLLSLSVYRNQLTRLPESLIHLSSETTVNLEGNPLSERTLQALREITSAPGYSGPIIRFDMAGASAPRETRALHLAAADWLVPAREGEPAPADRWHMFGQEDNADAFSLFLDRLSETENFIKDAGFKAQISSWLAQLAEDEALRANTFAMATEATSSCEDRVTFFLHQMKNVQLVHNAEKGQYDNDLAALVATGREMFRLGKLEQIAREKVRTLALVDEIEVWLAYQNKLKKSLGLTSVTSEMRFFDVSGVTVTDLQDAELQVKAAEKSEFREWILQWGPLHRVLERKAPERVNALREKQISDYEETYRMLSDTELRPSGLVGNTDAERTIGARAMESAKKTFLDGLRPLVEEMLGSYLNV
Protocol: as §1, §2, §3

## Cl.O=C(CCl)N1CCC(n2c(-c3ccc(C(F)(F)F)cc3)nc3ccccc32)CC1 [compound 7]
SspH1 (aa 161–700)
  pKi: < 4.00
  kinact/KI: 1.4 M⁻¹ s⁻¹
  ligand efficiencies reflecting the reversible binding interactions: 0.19–0.21
SspH2 (aa 166–783)
  pKi: < 4.30
  kinact/KI: 6.2 M⁻¹ s⁻¹
  fold higher kinact/KI with SspH2 than SspH1: 4–5 fold

## Cc1cc(-c2nc3ccccc3n2C2CCN(C(=O)CCl)CC2)cc(C)c1O.Cl [compound 6]
SspH1 (aa 161–700)
  pKi: < 4.00
  kinact/KI: 1.2 M⁻¹ s⁻¹
  ligand efficiencies reflecting the reversible binding interactions: 0.19–0.21
SspH2 (aa 166–783)
  pKi: < 4.30
  kinact/KI: 6.9 M⁻¹ s⁻¹
  fold higher kinact/KI with SspH2 than SspH1: 4–5 fold
